Experimental data published in patent US5936097A, “4,9-ethano-benzo(F)isoindole derivatives as farnesyl transferase inhibitors” (Rhone-Poulenc Rorer, S.A., priority 1995, dated 1999).

target: T1, human farnesyl transferase (Homo sapiens, UniProt P49354+P49356); test: inhibition of farnesyl transferase ((3H) farnesyl transfer from (3H) FPP to p21 H-ras); type: biochemical; conditions: not given
T1 construct: human farnesyl transferase purified from THP1 cell cultures; endogenous in cells; host or cells: THP1 cell cultures (enzyme purified from the cells)
Procedure: Farnesyl transferase activity is determined by the amount of (^3 H) farnesyl transferred from (^3 H) farnesylpyrophosphate [(^3 H) FPP] to the p21 H-ras protein. The standard reaction mixture is composed, for a final volume of […], of 50 mM Tris-HCl, 5 mM MgCl2, 5 mM dithiotreitol, 0.2% octyl b-D-glucopyranoside, 200 picomol p21 H-ras, 4.5 picomol (^3 H) FPP (activity 61000 dpm/picomol).
Reaction is initiated by adding approximately 5 ng of human farnesyl transferase purified from THP1 cell cultures. After incubation for 20 minutes at 37° C. in a microtitration plate containing 96 1-cm^3 wells per plate (Titer Plate®, Beckman), the reaction is stopped by adding 0.4 cm^3 of 0.1% SDS in methanol at 0° C. The mixture is then treated with 0.4 cm^3 of 30% trichloroacetic® acid (TCA) in methanol. The plates are left in ice for 1 hour. The precipitated contents are then retained on Filtermat®, Pharmacia), glass® fibre membranes with the filtration unit (Combi Cell Harvester®, Skatron), and rinsed with 6% trichloroacetic acid in distilled water. The membranes are dried in a microwave oven, then impregnated with scintillation medium by melting of Meltilex® (Pharmacia) under hot air, and lastly counted in cpm in a b-Plate counter® (LKB). Each test is repeated 3 times.
The unit of activity is defined as 1 picomole of (^3 H) FPP transferred to p21 H-ras in 20 minutes.
The percentage inhibition values are obtained by comparison of the tests with and without inhibitor after deduction of blanks, the IC50 values being measured on the basis of the inhibitions obtained with 9 different concentrations using Enzfitter® or Grafit® software.

Compound | IC50
O=C(Cc1ccccc1Br)N1C[C@H]2[C@@]3(c4ccccc4)CC[C@H](c4ccccc43)[C@@]2(C(=O)O)C1 (relative stereo) [Example 28, (3aRS, 4SR, 9SR, 9aRS)-4,9-ethano-2-(2-bromophenyl)acetyl-9-phenyl-2,3,3a,4,9,9a-hexahydro-1H-benzo[f]isoindole-3a-carboxylic acid] | 3050 nM
C=C(C(=O)N1C[C@@H]2[C@]3(c4ccccc4)CC[C@@H](c4ccccc43)[C@]2(C(=O)O)C1)c1ccccc1OC (relative stereo) [Example 38, (3aRS,4SR,9SR,9aRS)-4,9-ethano-2-[2-(2-methoxyphenyl)prop-2-en-1-oyl]-9-phenyl-2,3,3a,4,9,9a-hexahydro-1H-benzo[f]isoindole-3a-carboxylic acid] | 100 nM
COC(=O)[C@]12CN(C(=O)Cc3ccccc3OC)C[C@H]1[C@@]1(c3ccccc3)CC[C@@H]2c2ccccc21 (relative stereo) [Example 1, methyl ester of (3aRS, 4SR, 9SR, 9aRS)-4,9-ethano-2-(2-methoxyphenyl)acetyl-9-phenyl-2,3,3a,4,9,9a-hexahydro-1H-benzo[f]isoindole-3a-carboxylic acid] | 410 nM
COc1ccccc1CC(=O)N1C[C@H]2[C@@]3(c4ccccc4)CC[C@H](c4ccccc43)[C@@]2(C(=O)O)C1 (relative stereo) [Example 2, (3aRS, 4SR, 9SR, 9aRS)-4,9-ethano-2-(2-methoxyphenyl)acetyl-9-phenyl-2,3,3a,4,9,9a-hexahydro-1H-benzo[f]isoindole-3a-carboxylic acid] | 310 nM
CSc1ccccc1CC(=O)N1C[C@H]2[C@@]3(c4ccccc4)CC[C@H](c4ccccc43)[C@@]2(C(=O)O)C1 (relative stereo) [Example 30] | 600 nM
Cc1ccccc1CC(=O)N1C[C@@H]2[C@]3(c4ccccc4)CC[C@@H](c4ccccc43)[C@]2(C(=O)O)C1 (relative stereo) [Example 62, (3aRS,4SR,9SR,9aRS)-4,9-Ethano-2-(2-methylphenyl)acetyl-9-phenyl-2,3,3a,4,9,9a-hexahydro-1H-benzo[f]isoindole-3a-carboxylic acid] | 1150 nM
O=C(Cc1ccccc1O)N1C[C@@H]2[C@]3(c4ccccc4)CC[C@@H](c4ccccc43)[C@]2(C(=O)O)C1 (relative stereo) [Example 60, (3aRS,4SR,9SR,9aRS)-4,9-Ethano-2-(2-hydroxyphenyl)acetyl-9-phenyl-2,3,3a,4,9,9a-hexahydro-1H-benzo[f]isoindole-3a-carboxylic acid] | 1800 nM

same assay, conditions: human farnesyl transferase purified from THP1 cell cultures; p21 H-ras substrate; 20 minutes at 37° C.; 9 concentrations; read-out: in vitro inhibitory activity IC50

IC50 | Compound
4850 nM | C=C(C(=O)N1C[C@H]2[C@@]3(c4ccccc4)CC[C@H](c4ccccc43)[C@@]2(C(=O)NC(C)(C)c2ccccc2)C1)c1ccccc1OC [Example 86, (3aS,4R,9R,9aS)-N-(2,2-dimethylbenzyl)-4,9-ethano-2[-(2-methoxyphenyl)prop-2-en-1-oyl]-9-phenyl-2,3,3a,4,9,9a-hexahydro-1H-benzo[f]isoindole-3a-carboxamide]
5050 nM | COc1ccccc1CC(=O)N1C[C@@H]2[C@]3(c4ccccc4)CC[C@@H](c4ccccc43)[C@]2(C(=O)NN)C1 (relative stereo) [Example 58, hydrazide of (3aRS,4SR,9SR,9aRS)-4,9-ethano-2-(2-methoxyphenyl)acetyl-9-phenyl-2,3,3a,4,9,9a-hexahydro-1H-benzo[f]isoindole-3a-carboxylic acid]
10000 nM | COc1ccccc1CC(=O)N1C[C@H]2[C@@]3(c4ccccc4)CC[C@H](c4ccccc43)[C@@]2(C[n+]2ccccc2)C1 (relative stereo) [Example 18, N-[(3aRS, 4SR, 9SR, 9aRS)-4,9-ethano-2-(2-methoxyphenyl)acetyl-9-phenyl-2,3,3a,4,9,9a-hexahydro-1H-benzo[f]isoindolyl-3a-methyl]pyridinium trifluoromethanesulphonate]
1250 nM | COc1ccccc1CC(=O)N1C[C@@H]2[C@]3(c4ccccc4)CC[C@@H](c4ccccc43)[C@]2(C(=O)NO)C1 (racemic) [Example 46, (3aRS,4SR,9SR,9aRS)-4,9-ethano-2-(2-methoxyphenylacetyl)-9-phenyl-2,3,3a,4,9,9a-hexahydro-1H-benzo[f]isoindole-3a-carbohydroxamic acid]
740 nM | COc1ccccc1CC(=O)N1C[C@H]2[C@@]3(c4ccccc4)CC[C@H](c4ccccc43)[C@@]2(C(=O)NCC(=O)O)C1 [Example 48, N-[4,9-ethano-2-(2-methoxyphenyl)acetyl-9-phenyl-2,3,3a(S),4(R),9(R),9a(S)-hexahydro-1H-benzo[f]isoindol-3a-yl]carbonylglycine]
3650 nM | O=C(Cc1cccc2c1OCCC2)N1C[C@H]2[C@@]3(c4ccccc4)CC[C@H](c4ccccc43)[C@@]2(C(=O)O)C1 (relative stereo) [Example 76, (3aRS,4SR,9SR,9aRS)-2-(8-chromanyl)acetyl-4,9-ethano-9-phenyl-2,3,3a,4,9,9a-hexahydro-1H-benzo[f]isoindole-3a-carboxylic acid]
780 nM | C=C(C(=O)N1C[C@H]2[C@@]3(c4ccccc4)CC[C@H](c4ccccc43)[C@@]2(C(=O)NCc2cccc(C(F)(F)F)c2)C1)c1ccccc1OC [Example 89, (3aS,4R,9R,9aS)-N-[3-trifluorobenzyl]-4,9-ethano-2-[(2-methoxyphenyl)prop-2-en-1-oyl]-9-phenyl-2,3,3a,4,9,9a-hexahydro-1H-benzo[f]isoindole-3a-carboxamide]
860 nM | COc1ccccc1CC(=O)N1C[C@H]2[C@@]3(c4ccccc4)CC[C@H](c4ccccc43)[C@@]2(C(=O)N[C@H](C)c2ccccc2)C1 [Example 57, N-[(R)-1-phenylethyl]-4,9-ethano-2-(2-methoxyphenyl)acetyl-9-phenyl-2,3,3a(S),4(R),9(R),9a(S)-hexahydro-1H-benzo[f]isoindole-3a-carboxamide]
5050 nM | COc1ccccc1C(C(=O)N1C[C@@H]2[C@]3(c4ccccc4)CC[C@@H](c4ccccc43)[C@]2(C(=O)O)C1)=C(C)C (racemic) [Example 79, (3aRS,4SR,9SR,9aRS)-4,9-ethano-2-[2-(2-methoxyphenyl)-3-methyl-2-butenoyl]-9-phenyl-2,3,3a,4,9,9a-hexahydro-1H-benzo[f]isoindole-3a-carboxylic acid]
2500 nM | C=C(C(=O)N1C[C@H]2[C@@]3(c4ccccc4)CC[C@H](c4ccccc43)[C@@]2(C(=O)NC2CCSc3ccccc32)C1)c1ccccc1OC (stereo partly drawn) [Example 88, (3aS,4R,9R,9aS)-N-[(R,S)-4-benzo[b]thiopyranyl]-4,9-ethano-2-[(2-methoxyphenyl)prop-2-en-1-oyl]-9-phenyl-2,3,3a,4,9,9a-hexahydro-1H-benzo[f]isoindole-3a-carboxamide]
2300 nM | COc1ccccc1CC(=O)N1C[C@H]2[C@@]3(c4ccccc4)CC[C@H](c4ccccc43)[C@@]2(CSCCC(=O)O)C1 (relative stereo) [Example 26, 3-[(3aRS, 4SR, 9SR, 9aRS)-4,9-ethano-2-(2-methoxyphenyl)acetyl-9-phenyl-2,3,3a,4,9,9a-hexahydro-1H-benzo[f]isoindol-3a-yl]methylthiopropanoic acid]
2150 nM | O=C(Cc1c[nH]c2ccc(Br)cc12)N1C[C@@H]2[C@]3(c4ccccc4)CC[C@@H](c4ccccc43)[C@]2(C(=O)O)C1 (relative stereo) [Example 35, (3aRS, 4SR, 9SR, 9aRS)-4,9-ethano-2-(5-bromo-3-indolyl)acetyl-9-phenyl-2,3,3a,4,9,9a-hexahydro-1H-benzo [f]isoindole-3a-carboxylic acid]
6700 nM | C/C=C(/C(=O)N1C[C@H]2[C@@]3(c4ccccc4)CC[C@H](c4ccccc43)[C@@]2(C(=O)OC)C1)c1ccccc1OC (relative stereo) [Example 77, methyl ester of (3aRS,4SR,9SR,9aRS)-4,9-ethano-2-[2(E)-(2-methoxyphenyl)-2-butenoyl]-9-phenyl-2,3,3a,4,9,9a-hexahydro-1H-benzo[f]isoindole-3a-carboxylic acid]
2850 nM | COc1ccc2c(c1)[C@]1(c3ccccc3)CC[C@H]2[C@@]2(C(=O)O)CN(C(=O)Cc3ccccc3OC)C[C@@H]12 (relative stereo) [Example 70, (3aRS,4SR,9SR,9aRS)-4,9-ethano-7-methoxy-2-(2-methoxy-phenyl)acetyl-9-phenyl-2,3,3a,4,9,9a-hexahydro-1H-benzo[f]isoindole-3a-carboxylic acid]
3900 nM | COc1ccccc1CC(=O)N1C[C@@H]2[C@]3(c4ccccc4)CC[C@@H](c4ccccc43)[C@]2(C(=O)N(C)C)C1 (relative stereo) [Example 55, (3aRS,4SR,9SR,9aRS)-N,N-dimethyl-4,9-ethano-2-(2-methoxyphenyl)acetyl-9-phenyl-2,3,3a,4,9,9a-hexahydro-1H-benzo[f]isoindole-3a-carboxamide]
